{"source": "patent US5965570A", "about": "“Tricyclic piperidinyl compounds useful as inhibitors of farnesyl-protein transferase” (Schering Corporation, priority 1997, dated 1999)", "molecular_target": "T1, farnesyl protein transferase (FPT) (Rattus norvegicus, UniProt Q02293+Q04631)", "T1 construct": "partially purified rat brain farnesyl protein transferase (FPT); from tissue; host or cells: rat brain", "T1 sequence (Q02293 whole entry, one chain of several)": "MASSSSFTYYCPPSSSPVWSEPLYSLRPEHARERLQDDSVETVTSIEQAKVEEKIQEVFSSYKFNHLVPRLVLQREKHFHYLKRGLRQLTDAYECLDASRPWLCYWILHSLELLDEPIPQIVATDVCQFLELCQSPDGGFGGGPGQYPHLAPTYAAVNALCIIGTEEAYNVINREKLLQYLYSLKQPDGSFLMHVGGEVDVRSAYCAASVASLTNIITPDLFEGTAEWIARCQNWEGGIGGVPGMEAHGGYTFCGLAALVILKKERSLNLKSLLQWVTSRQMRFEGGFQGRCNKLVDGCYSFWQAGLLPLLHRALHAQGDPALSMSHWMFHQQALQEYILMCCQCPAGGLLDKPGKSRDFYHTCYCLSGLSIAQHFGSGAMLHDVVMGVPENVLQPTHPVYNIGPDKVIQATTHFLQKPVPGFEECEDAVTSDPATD", "assay": "FPT IC50 / FPT inhibition (inhibition of farnesyl protein transferase, in vitro enzyme assay)", "type": "biochemical", "conditions": "for IC50: Ras-CVLS farnesylation by partially purified rat brain FPT"}
{"smiles": "O=C(NCc1cccnc1)C1CCCN(C2c3ccc(Cl)cc3CCc3cc(Br)cnc32)C1", "note": "(stereo not drawn) [Example 10, 1-(3-Bromo-8-chloro-6,11-dihydro-5H-benzo[5,6]cyclohepta[1,2-b]pyridin-11-yl)-N-(3-pyridinylmethyl)-3-piperidinecarboxamide]", "values": [{"measurement": "IC50", "value": 210, "unit": "nM"}]}
{"smiles": "O=C(NCCCN1CCCC1=O)[C@@H]1CCCN(C2c3ncc(Br)cc3CCc3cc(Cl)cc(Br)c32)C1", "note": "(stereo partly drawn) [Example 54, 1-(3,10-Dibromo-8-chloro-6,11-dihydro-5H-benzo[5,6]cyclohepta[1,2-b]pyridin-11-yl)-N-[3-(2-oxo-1-pyrrolidinyl)propyl]-3-piperidinecarboxamide]", "values": [{"measurement": "IC50", "value": 1000, "unit": "nM"}]}
{"smiles": "O=C(NCCc1ccccn1)C1CCN(C2c3ccc(Cl)cc3CCc3cc(Br)cnc32)CC1", "note": "(stereo not drawn) [Example 6, 1-(3-Bromo-8-chloro-6,11-dihydro-5H-benzo[5,6]cyclohepta[1,2-b]pyridin-11-yl)-N-(2-pyridinylethyl)-4-piperidinecarboxamide]", "values": [{"measurement": "inhibition at 1.1 µM", "setting": "@ 1.1 μM", "value": 9, "unit": "%"}]}
